According to US11725015B2, “Macrocyclic compound and uses thereof” (President and Fellows of Harvard College, priority 2017, dated 2023):

How the values were obtained:
[1] = test system: HEC-108 (human endometrial cancer) xenograft; assay: Antitumor effects in HEC-108 endometrial cancer xenograft model in mice as monotherapy; type: in vivo; details: 180 μg/kg intravenously on Day 1 and Day 8
Protocol: A human endometrial cancer cell line HEC-108, which had been cultured in an E-MEM containing 15% FBS and antibiotics were adjusted to a concentration of 7.14×10^7 cells/mL with medium to prepare a cell suspension. The cell suspension was inoculated in a volume of 150 μL into a subcutaneous part of a right flank of athymic mice (CAnN.Cg-Foxnlnu/CrlCrlj, female, 6 weeks old, Charles River Japan Inc.). Thirteen days after cell inoculation (Day 1), the length and the width of a tumor in each mouse were measured by using an electronic digital caliper (Mitutoyo Corporation), so as to calculate the volume of the tumor in accordance with the following calculation formula: Tumor volume (mm^3)=Longest diameter (mm)×Shortest diameter (mm)×Shortest diameter (mm)/2 Relative tumor volume (RTV)=Tumor volume (day X)/Tumor volume (the first day)
On the basis of TV, the mice were randomly grouped (Day 1). Each group was consisted in six mice. Compound (1) was dissolved in DMSO and a solution was stored in the freezer before use. Compound (1) (180 μg/kg) was diluted in saline and intravenously injected on Day 1 and Day 8.

[2] = test system: FaDu subcutaneous xenograft; assay: Antitumor effects in FaDu subcutaneous xenograft model in combination with cetuximab in mice, single dose (Test Example 21); type: in vivo; details: single dose Day 1
Protocol: A human squamous cell carcinoma of the head and neck (SCCHN) cell line FaDu, which had been cultured in an RPMI-1640 medium containing 10% FBS, and penicillin-streptomycin, was adjusted to a concentration of 5×10^7 cells/mL with Hanks' Balanced Salt Solution to prepare a cell suspension. The cell suspension was inoculated in a volume of 100 μL into a subcutaneous part of a right flank of athymic mice (CAnN.Cg-Foxnlnu/CrlCrlj, female, 7 weeks old, Charles River Japan Inc.). Ten days after cell inoculation (Day 1), the length and the width of a tumor in each mouse were measured by using an electronic digital caliper (Mitutoyo Corporation), so as to calculate the volume of the tumor in accordance with the following calculation formula: Tumor volume (mm^3)=Longest diameter (mm)×Shortest diameter (mm)×Shortest diameter (mm)/2 Relative tumor volume (RTV)=Tumor volume (day X)/Tumor volume (the first day)
On the basis of TV, the mice were randomly grouped (Day 1). Each group was consisted in six mice. Compound (1) was dissolved in DMSO and a solution was stored in the freezer before use.

[3] = target: T1, tubulin protein purified from porcine brain (Sus scrofa, UniProt P02550+P02554); assay: Cell-free tubulin polymerization assay; type: biochemical; details: final concentrations 0.625-10 μmol/L
T1 construct: lyophilized tubulin protein purified from porcine brain; purchased Cytoskeleton, Inc. BK011P; host or cells: porcine brain (tissue-purified)
T1 sequence (P02554 whole entry): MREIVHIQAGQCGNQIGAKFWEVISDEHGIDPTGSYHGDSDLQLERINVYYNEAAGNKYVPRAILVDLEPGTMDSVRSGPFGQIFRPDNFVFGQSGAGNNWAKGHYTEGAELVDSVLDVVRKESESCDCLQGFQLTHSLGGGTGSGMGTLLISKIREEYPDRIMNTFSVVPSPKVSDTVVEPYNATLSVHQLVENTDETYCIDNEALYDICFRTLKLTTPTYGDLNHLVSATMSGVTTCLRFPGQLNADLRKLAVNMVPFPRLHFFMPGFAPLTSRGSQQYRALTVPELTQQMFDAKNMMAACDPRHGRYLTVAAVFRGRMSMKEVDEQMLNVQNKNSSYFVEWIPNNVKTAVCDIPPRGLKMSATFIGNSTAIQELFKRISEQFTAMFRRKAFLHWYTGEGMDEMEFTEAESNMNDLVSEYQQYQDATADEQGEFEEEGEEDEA
T1 sequence (P02550 whole entry): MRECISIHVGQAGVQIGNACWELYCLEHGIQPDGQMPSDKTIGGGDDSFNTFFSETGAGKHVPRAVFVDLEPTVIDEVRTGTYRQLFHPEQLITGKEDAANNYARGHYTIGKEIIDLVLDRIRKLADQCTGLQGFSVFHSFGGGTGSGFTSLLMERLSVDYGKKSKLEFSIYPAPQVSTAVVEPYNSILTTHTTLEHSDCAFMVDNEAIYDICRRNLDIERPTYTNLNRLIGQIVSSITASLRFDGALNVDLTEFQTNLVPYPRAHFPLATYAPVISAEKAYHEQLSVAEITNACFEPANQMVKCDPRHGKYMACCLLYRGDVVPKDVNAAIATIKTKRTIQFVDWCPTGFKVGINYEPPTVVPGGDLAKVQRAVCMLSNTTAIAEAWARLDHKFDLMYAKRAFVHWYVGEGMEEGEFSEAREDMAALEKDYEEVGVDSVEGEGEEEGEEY
Protocol: Tubulin Polymerization Assay kit was purchased from Cytoskeleton, Inc. (Cat. #BK011P). The kit contained 1 bottle of lyophilized tubulin protein purified from porcine brain, 3 tubes of lyophilized GTP, 2 bottles of lyophilized assay buffer, and 1 bottle of tubulin glycerol buffer. Assay buffer was prepared by dissolving the contents in 10 mL of deionized and sterilized water. This solution contained 80 mmol/L piperazine-N,N′-bis[2-ethanesulfonic acid] sesquisodium salt, 2.0 mmol/L magnesium chloride, 0.5 mmol/L ethylene glycol-bis(2-amino-ethyl ether) N,N,N′,N′-tetra-acetic acid, pH 6.9, and 10 μmol/L fluorescent reporter. The buffer was stored at −70° C. until use. […]
In the tubulin polymerization assay, reaction mixture was prepared by mixing 820 μL of assay buffer, 17.6 μL of GTP stock solution, and 600 μL of tubulin glycerol buffer. […] Fluorescence emission at 460 nm (excitation wavelength at 360 nm) was measured every 2 minutes for 90 minutes using the SpectraMax® M5e microplate reader (Molecular Devices). Tubulin polymerization was followed by fluorescence enhancement due to the incorporation of a fluorescence reporter into microtubules as polymerization occurred. […]

With `C=C1C[C@@H]2CC[C@@]34C[C@H]5O[C@H]6[C@@H](O3)[C@H]3O[C@H](CC[C@@H]3O[C@H]6C5O4)CC(=O)O[C@@H]3[C@@H](C)[C@@H]4O[C@@H]5C[C@]6(C[C@@H]7O[C@]8(C[C@H](C)[C@@H]9O[C@H](CN)[C@H](O)C[C@@H]9O8)C[C@H](C)[C@@H]7O6)O[C@@H]5C[C@@H]4O[C@H]3C[C@H]3O[C@@H](CC[C@@H]1O2)C[C@@H](C)C3=C` [Compound (1)] the antitumor activity [1] was “tumor growth delay”, the “antitumor efficacy with CTX” value ([2]; 180 μg/kg + CTX 10 mg/kg) was “stronger than that of CTX monotherapy with tumor regression” and the “antitumor efficacy with CTX” value ([2]; 20 mg/kg + CTX 10 mg/kg) was “tended to be stronger than that of CTX monotherapy”. The “antitumor efficacy with CTX” value ([2]; 60 mg/kg + CTX 10 mg/kg) was “stronger than that of CTX monotherapy with tumor regression” and the “effect on tubulin polymerization” value [3] was “inhibited tubulin polymerization in a concentration-dependent manner”.
